Key:
T-tropic HIV = settings: patients dual tropic or with only the T-tropic form of the virus; cited from earlier work
[1] = test system: HOS (hCXCR4/hCCR5/hCD4/pHIV-LTR-luciferase) cells and HEK-293 cells expressing HIV-1 gp160 (HXB2 strain); assay: Cell/cell fusion assay (luciferase); format: cell-based; settings: Homo sapiens, HEK293; 24 h, luciferase readout; read-out: Fusion assay (pIC50) (converted)
Source text: The complete coding sequences of HIV-1 tat (GenBank Accession No. X07861) and rev (GenBank Accession No. M34378) were cloned into pcDNA3.1 expression vectors containing G418 and hygromycin resistance genes, respectively. The complete coding sequence of the HIV-1 (HXB2 strain) gp160 envelope gene (nucleotide bases 6225-8795 of GenBank Accession No. K03455) was cloned into plasmid pCRII-TOPO. The three HIV genes were additionally inserted into the baculovirus shuttle vector, pFastBacMam1, under the transcriptional control of the CMV promoter. A construction of the pHIV-I LTR containing mutated NFkB sequences linked to the luciferase reporter gene was prepared by digesting pcDNA3.1, containing the G418 resistance gene, with Nru I and Bam HI to remove the CMV promoter. LTR-luc was then cloned into the Nru I/Bam HI sites of the plasmid vector. Plasmid preparations were performed after the plasmids were amplified in Escherichia coli strain DH5-alpha. The fidelity of the inserted sequences was confirmed by double-strand nucleotide sequencing using an ABI Prism Model 377 automated sequencer.
BacMam Baculovirus Generation
Recombinant BacMam baculoviruses were constructed from pFastBacMam shuttle plasmids by using the bacterial cell-based Bac-to-Bac system. Viruses were propagated in Sf9 (Spodoptera frugiperda) cells cultured in Hink's TNM-FH Insect media supplemented with 10% (v/v) fetal bovine serum and 0.1% (v/v) pluronic F-68 according to established protocols.
Human osteosarcoma (HOS) cells that naturally express human CXCR4 were transfected with human CCR5, human CD4 and the pHIV-LTR-luciferase plasmid using FuGENE 6 transfection reagent. Single cells were isolated and grown under selection condition in order to generate a stable HOS (hCXCR4/hCCR5/hCD4/pHIV-LTR-luciferase) clonal cell line. The cells were maintained in Dulbeccos modified Eagles media supplemented with 10% fetal calf serum (FCS), G418 (400 ug/ml), puromycin (1 ug/ml), mycophenolic acid (40 ug/ml), xanthine (250 ug/ml) and hypoxanthine (13.5 ug/ml) to maintain a selection pressure for cells expressing the LTR-luciferase, hCCR5 and hCD4, respectively. Human embryonic kidney (HEK-293) cells stably transfected to express the human macrophage scavenging receptor (Class A, type 1; GenBank Accession No. D90187), were maintained in DMEM/F-12 media (1:1) supplemented with 10% FCS and 1.5 ug/ml puromycin. The expression of this receptor by the HEK-293 cells enhances their ability to stick to tissue culture treated plasticware.
Transduction of HEK-293 cells
HEK-293 cells were harvested using enzyme-free cell dissociation buffer. The cells were resuspended in DMEM/F-12 media supplemented with 10% FCS and 1.5 ug/ml and counted. Tranductions were performed by direct addition of BacMam baculovirus containing insect cell media to cells. The cells were simultaneously transduced with BacMam baculovirus expressing HIV-1 tat, HIV-1 rev and HIV-1 gp160 (from the HXB2 HIV strain). Routinely an MOI of 10 of each virus was added to the media containing the cells. 2 mM butyric acid was also added to the cells at this stage to increase protein expression in transduced cells. The cells were subsequently mixed and seeded into a flask at 30 million cells per T225. The cells were incubated at 37° C., 5% CO2, 95% humidity for 24 h to allow for protein expression.
Cell/Cell Fusion Assay Format
HEK and HOS cells were harvested in DMEM/F-12 media containing 2% FCS and DMEM media containing 2% FCS, respectively, with no selection agents added. Compounds were plated as 1 ul spots in 100% DMSO on a 96-well CulturPlate plates. HOS cells (50 ul) were added first to the wells, followed immediately by the HEK cells (50 ul). The final concentration of each cell type was 20,000 cells per well. Following these additions, the cells were returned to a tissue culture incubator (37° C.; 5% CO2/95% air) for an additional 24 h.
Measurement of Luciferase Production […]

human CXCR4 = biological target: T1, human CXCR4 (Homo sapiens, UniProt P61073); assay: Functional FLIPR assay (block of SDF-1 alpha induced [Ca2+]i change); format: cell-based; settings: HEK-293 cells with human CXCR4 and Gqi5 BacMam; antagonism of SDF-1 alpha; read-out: Functional assay (pIC50) (converted)
T1 construct: expressed in transfected cells; host or cells: HEK-293 cells (stably expressing human macrophage scavenger receptor class A type 1), transduced with human CXCR4 BacMam and Gqi5 BacMam baculoviruses
Method: Human embryonic kidney (HEK-293) cells were maintained and harvested as described above. Cells were plated in 96-well, black clear bottom, poly-lysine coated plates at a concentration of 40,000 cells per well in a final volume of 100 ul containing human CXCR4 BacMam (MOI=25) and Gqi5 BacMam (MOI=12.5). The cells were incubated at 37° C., 5% CO2, 95% humidity for 24 h to allow for protein expression.
After the required incubation time the cells were washed once with 50 ul of fresh serum-free DMEM/F12 media containing probenicid. 50 ul of dye solution was then added to the cells (Calcium Plus Assay Kit Dye; Molecular Devices) was dissolved in 200 ml of the above probenicid/BSA containing media and incubated for 1 h. Cell plates were transferred to a Fluorometric Imaging Plate Reader (FLIPR). Upon addition the effect of the compounds on the change in [Ca^2+]i was examined to determine if the compounds were agonists or antagonists (ability to block SDF-1 alpha activity) at the CXCR4 receptor. IC50 values are determined and pKb values are calculated using the Leff and Dougall equation: KB=IC50/((2+([agonist]/EC50ˆb)ˆ1/b−1) Where IC50 is that defined by the antagonist concentration-response curve [agonist] is the EC80 concentration of agonist used EC50 is that defined by the agonist concentration-response curve b is the slope of the agonist concentration-response curve.

HIV-1 IIIB = assay: HOS HIV-1 infectivity assay, IIIB strain; format: cell-based; settings: Human immunodeficiency virus 1; HOS cells, HIV-1 IIIB (T-tropic, CXCR4 utilizing), 96 h; read-out: HOS (3B)
Method: HOS HIV-1 Infectivity Assay
(§1) Compounds were profiled against two HIV-1 viruses, the M-tropic (CCR5 utilizing) Ba-L strain and the T-tropic (CXCR4 utilizing) IIIB strain. Both viruses were propagated in human peripheral blood lymphocytes. Compounds were tested for there ability to block infection of the HOS cell line (expressing hCXCR4/hCCR5/hCD4/pHIV-LTR-luciferase) by either HIV-1 Ba-L or HIV-1 IIIB. Compound cytotoxicity was also examined in the absence of virus addition.
HOS HIV-1 Infectivity Assay Format
(§2) HOS cells (expressing hCXCR4/hCCR5/hCD4/pHIV-LTR-luciferase) were harvested and diluted in Dulbeccos modified Eagles media supplemented with 2% FCS and non-essential amino acid to a concentration of 60,000 cells/ml. The cells were plated into 96-well plates (100 ul per well) and the plates were placed in a tissue culture incubator (37° C.; 5% CO2/95% air) for a period of 24 h.
(§3) Subsequently, 50 ul of the desired drug solution (4 times the final concentration) was added to each well and the plates were returned to the tissue culture incubator (37° C.; 5% CO2/95% air) for 1 h. Following this incubation 50 ul of diluted virus was added to each well (approximately 2 million RLU per well of virus). The plates were returned to the tissue culture incubator (37° C.; 5% CO2/95% air) and were incubated for a further 96 h.
(§4) Following this incubation the endpoint for the virally infected cultures was quantified following addition of Steady-Glo Luciferase assay system reagent (Promega, Madison, Wis.). Cell viability or non-infected cultures was measured using a CellTiter-Glo luminescent cell viability assay system (Promega, Madison, Wis.). All luminescent readouts are performed on a Topcount luminescence detector (Packard, Meridien, Conn.).

HIV = assay: HOS HIV infectivity assay (Table 2, strain not given); format: cell-based; settings: Human immunodeficiency virus 1, read-out: Activity Level
Summary of the method: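 HOS cells expressing hCXCR4/hCCR5/hCD4 and an HIV-LTR-luciferase reporter were preincubated with compound for 1 h in DMEM/2% FCS. They were then infected with HIV-1 Ba-L or IIIB (about 2 million RLU/well) for 96 h at 37° C. Infection was read by luciferase luminescence, and viability in uninfected cultures by CellTiter-Glo.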

[2] = Compound cytotoxicity in the absence of virus (CellTiter-Glo); format: cell-based; settings: human; HOS cells, no virus; read-out: Cytotox (pIC50) (converted)
Method: as §1, §2, §3, §4

T1 sequence (P61073 whole entry): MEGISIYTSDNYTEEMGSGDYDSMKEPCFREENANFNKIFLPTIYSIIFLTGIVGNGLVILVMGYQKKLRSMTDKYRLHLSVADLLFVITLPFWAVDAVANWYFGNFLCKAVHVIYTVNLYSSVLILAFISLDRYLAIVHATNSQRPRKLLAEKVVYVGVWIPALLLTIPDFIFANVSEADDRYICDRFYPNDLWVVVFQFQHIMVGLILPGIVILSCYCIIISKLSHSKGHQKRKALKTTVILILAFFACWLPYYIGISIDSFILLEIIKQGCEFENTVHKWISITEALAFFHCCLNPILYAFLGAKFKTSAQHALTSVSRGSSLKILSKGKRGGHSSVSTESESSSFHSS

Row | Compound | T-tropic HIV viral load (T-tropic HIV) | IC50 [1] | IC50 (human CXCR4) | IC50 (HIV-1 IIIB) | IC50 (HIV) | IC50 at 96 h [2]
1 | c1cc(CN2CCCNCCNCCCNCC2)ccc1CN1CCCNCCNCCCNCC1 [AMD-3100] | significantly reduce T-tropic HIV viral load | – | – | – | – | –
2 | CN1CCN(c2cccc3nc(CN(C)C4CCCc5cccnc54)cn23)CC1 (stereo not shown) [Example 6, N-Methyl-N-{[5-(4-methyl-1-piperazinyl)imidazo[1,2-a]pyridin-2-yl]methyl}-5,6,7,8-tetrahydro-8-quinolinamine] | – | 3.31 nM | 7.94 nM | 6.3 nM | < 100 nM | > 100000 nM
3 | CC(C)N1CCN(c2cccc3nc(CN(C(C)C)C4CCCc5cccnc54)cn23)CC1 (stereo not shown) [Example 15, N-(1-Methylethyl)-N-({5-[4-(1-methylethyl)-1-piperazinyl]imidazo[1,2-a]pyridin-2-yl}methyl)-5,6,7,8-tetrahydro-8-quinolinamine] | – | 79.4 nM | 3.63 nM | 38 nM | < 100 nM | > 100000 nM
4 | CCN1CCN(c2cccc3nc(CN(C)C4CCCc5cccnc54)cn23)CC1 (stereo not shown) [Example 7, N-{[5-(4-Ethyl-1-piperazinyl)imidazo[1,2-a]pyridin-2-yl]methyl}-N-methyl-5,6,7,8-tetrahydro-8-quinolinamine] | – | 11.2 nM | 6.92 nM | 11 nM | < 100 nM | > 100000 nM
